According to patent US11091786B2, “Butelase-mediated peptide ligation” (Nanyang Technological University, priority 2015, dated 2021):
In brackets after ≈: the same amount, converted by molar mass. Bridge positions count the residues as written; N and C are the ends. Square brackets hold non-standard residues; d marks the D form. Side chains are listed from the residue outwards. Ends that are not written are not given here. Peptide text beside a SMILES is read from it. I, II: the chains in the order shown. βAla = NCCC(=O)O

Tests used:
E. coli = format: cell-based
Protocol: (§1) The materials for radial diffusion assay were prepared as following:
(§2) Trypticase soy broth (TSB): Full-strength broth contains 30 grams of TSB powder per liter of deionized water. It was autoclaved at 120° C. for 20 min and stored at room temperature.
(§3) Underlay gel: 50 mL of […] sodium phosphate buffer, 5 ml full-strength TSB and 5 g agarose were mixed in a beaker followed by addition of deionized water to 500 mL. The medium was autoclaved at 120° C. for 20 min. Before use, it was maintained at 42° C. to prevent from solidifying.
(§4) Overlay gel: One liter of overlay gel contains 60 g of TSB powder and 10 g of agarose. The medium was autoclaved at 120° C. for 20 min. To prevent from solidifying, it was maintained at 42° C. before use.
(§5) The following protocol was applied to the radial diffusion assay.
(§6) 1. A single colony was picked and transferred into a 5 ml tube containing 2.5 ml TSB. The culture was shaken at 37° C. for 18 h.
(§7) 2. 50 μl of the stationary phase culture was diluted to 2.5 mL of autoclaved TSB (1:50 dilution) and shaken at 37° C. for another 3 h.
(§8) 3. This subculture was centrifuged at 5000 rpm for 5 min and the supernatant was discarded. The residual cells were washed with cold sterile 10 mM phosphate buffer, pH 7.4 and the buffer was discarded after centrifuge. 5 ml of the same buffer was added to resuspend the cells and its bacteria concentration was determined by measuring its optical density at 620 nm.
(§9) 4. 10 ml of antoclaved, molten underlay gel agar was transferred to a 15-ml eppendorf tube and mixed with 4×10^6 CFU of bacteria by vortexing. The mixture was then poured into a petri dish and gelled in less than […]. Wells were punched against the gel using a Pasteur pippette.
(§10) 5. Peptides to be tested were serially diluted and 3.5 μl of each sample was added to the well. The plates were incubated at 37° C. for 3 h with gel-side up.
(§11) 6. Next, each underlay gel was covered with 10 ml of overlay gel. After the gel solidified, the plates were turned gel-side up and incubated at 37° C. for overnight.
(§12) 7. The following morning, all the plates were taken out and the zone diameters were measured with ruler. All the samples were tested in duplicates and the results were averaged. The final minimum inhibition concentration (MIC) was determined using excel.
(§13) There is a growing interest to develop peptide-based antibiotics (Annu Rev Immunol. 1995, 13, 61-92; J Intern Med. 2003, 254, 197-215; Cent Eur J Biol 2007, 2, 1-33; Int J Pept Res Ther. 2010, 16, 199-213) because, compared with conventional antibiotics, they are less likely to develop drug resistance and have fewer side effects (J Med Chem. 2015, 58, 6533-6548; Biochemistry-Us. 2000, 39, 7159-7169; Eur J Biochem. 2000, 267, 3289-3300; Nucleic Acids Res. 2012, 40, W199-204). To apply the presently disclosed enzymatic method in preparing dendrimeric antimicrobials, inventors synthesized two antimicrobials 12 (bivalent) and 13 (tetravalent) (MS shown in supporting information) which harbored a tetrapeptide RLYR (SEQ ID NO:121) as the antibacterial sequence (Eur J Biochem. 2002, 269, 923-932) by ligating N-acetylated thiodepsipeptide 10 Ac-RLYRN-thioglc-V (SEQ ID NO:120) with dendron core 2 and 6 respectively. The RLYR (SEQ ID NO:121) tetrapeptide contains a BHHB motif (B=basic, H=hydrophobic) which is commonly found in certain potent and broad-spectrum β-stranded antimicrobial peptides (BioDrugs. 2013, 27, 479-493) such as PG (protegrins) (Febs Lett. 1993, 327, 231-236) and RTD-1 (rhesus monkey theta defensin) (Science. 1999, 286, 498-502). This consensus motif with positive charged and hydrophobic residues was successfully used as a dendrimeric antimicrobial in 2002 (Eur J Biochem. 2002, 269, 923-932). Such short peptide-based dendrimeric antimicrobials are broad-spectrum antibiotics and kill bacterial cells through electrostatic and hydrophobic interactions with the negatively charged microbial cytoplasmic membranes (Biochemistry-Us. 2009, 48, 5642-5657). […]

S. aureus = format: cell-based
Protocol: as §1, §2, §3, §4, §5, §6, §7, §8, §9, §10, §11, §12, §13

butelase 1 = assay: Butelase-mediated ligation kinetic characterization (Lineweaver-Burk); format: biochemical, Clitoria ternatea; settings: 0.1 μM butelase 1, 1 mM GIGGIR, peptide 25 to 400 μM, pH 6.5, 42° C.
Protocol: Ligation assays were performed in 50-μl mixtures containing reaction buffer (1 mM EDTA, 20 mM phosphate buffer, pH 6.5), 0.1 […] butelase 1, 1 mM GIGGIR (SEQ ID NO:114) and varying concentrations of peptides 1-4 (25 to 400 μM). The reactions were performed in triplicate at 42° C. and quenched by adding 5 μl of 1 M HCl solution. The peptides were separated by using a reversed-phase C18 analytical column (150×2.1 mm, Vydac) with a linear gradient from 5% to 40% acetonitrile over 15 min on a Nexera UHPLC system (Shimadzu). The ligation velocities were calculated by converting the HPLC-peak areas of remained linear precursors or the ligated products into concentrations. The identity of each HPLC peak was analyzed by MALDI-TOF MS (ABI 4800 MALDI TOF/TOF). The kinetic parameters (kcat and Km) for each peptide were obtained by the LineweaverBurk plot.

Chain of butelase 1 (as listed by the source): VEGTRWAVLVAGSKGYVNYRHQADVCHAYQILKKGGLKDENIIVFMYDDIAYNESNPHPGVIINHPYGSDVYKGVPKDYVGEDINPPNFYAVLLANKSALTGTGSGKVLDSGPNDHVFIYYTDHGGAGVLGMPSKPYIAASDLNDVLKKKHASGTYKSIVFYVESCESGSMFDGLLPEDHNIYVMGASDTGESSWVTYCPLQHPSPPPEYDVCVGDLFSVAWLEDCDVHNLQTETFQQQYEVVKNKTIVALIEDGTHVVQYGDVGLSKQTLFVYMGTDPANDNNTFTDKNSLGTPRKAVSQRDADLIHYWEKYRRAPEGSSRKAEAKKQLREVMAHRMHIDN

MIC (E. coli) [µM]	MIC (S. aureus) [µM]	Compound	antimicrobial activity (in words) (E. coli; E. coli, high-salt condition (100 mM NaCl))	antimicrobial activity (in words) (S. aureus; S. aureus, high-salt condition (100 mM NaCl))	Km (butelase 1) [µM]	kcat (butelase 1) [s⁻¹]
18.3 (≈ 45.4 µg/mL)	3.4 (≈ 8.43 µg/mL)	CC[C@H](C)[C@H](NC(=O)[C@H](CCCNC(=N)N)NC(=O)[C@H](CC(N)=O)NC(=O)[C@H](CCCNC(=N)N)NC(=O)[C@H](Cc1ccc(O)cc1)NC(=O)[C@H](CC(C)C)NC(=O)[C@H](CCCNC(=N)N)NC(C)=O)C(=O)NCCC(=O)NCCCC[C@H](NC(=O)CCNC(=O)[C@@H](NC(=O)[C@H](CCCNC(=N)N)NC(=O)[C@H](CC(N)=O)NC(=O)[C@H](CCCNC(=N)N)NC(=O)[C@H](Cc1ccc(O)cc1)NC(=O)[C@H](CC(C)C)NC(=O)[C@H](CCCNC(=N)N)NC(C)=O)[C@@H](C)CC)C(=O)N[C@@H](Cc1ccc(O)cc1)C(N)=O [Dimer 12, (Ac-RLYRNRIβA)2KY] (I: Ac-RLYRNRI[βAla]KY-NH2 / II: Ac-RLYRNRI[βAla]; amide I:9-II:C)	–	–	–	–
–	–	YKNGV (not fully specified (C-terminus)) [Peptide 4]	–	–	880 ± 80	7.9 ± 0.72
>150	>150	CC[C@H](C)[C@H](NC(=O)[C@@H](N)CCCNC(=N)N)C(=O)NCCC(=O)NCCCC[C@H](NC(=O)CCNC(=O)[C@@H](NC(=O)[C@@H](N)CCCNC(=N)N)[C@@H](C)CC)C(=O)N[C@@H](Cc1ccc(O)cc1)C(N)=O [Bivalent dendron core 2, (RIβA)2KY] (H-RI[βAla]K([βAla-Ile-Arg])Y-NH2; N-terminus assumed)	–	–	–	–
>150	>150	CC[C@H](C)[C@H](NC(=O)[C@@H](N)CCCNC(=N)N)C(=O)NCCC(=O)NCCCC[C@H](NC(=O)CCNC(=O)[C@@H](NC(=O)[C@@H](N)CCCNC(=N)N)[C@@H](C)CC)C(=O)NCCCC[C@H](NC(=O)[C@H](CCCCNC(=O)CCNC(=O)[C@@H](NC(=O)[C@@H](N)CCCNC(=N)N)[C@@H](C)CC)NC(=O)CCNC(=O)[C@@H](NC(=O)[C@@H](N)CCCNC(=N)N)[C@@H](C)CC)C(=O)N[C@@H](Cc1ccc(O)cc1)C(N)=O [Tetravalent dendron core 6, (RIβA)4K2KY]	–	–	–	–
–	–	YKNHV (not fully specified (C-terminus)) [Peptide 3]	–	–	300 ± 10	4.1 ± 0.65

Compound	MIC (E. coli) [µM]	MIC (S. aureus) [µM]	antimicrobial activity (in words) (E. coli; E. coli, high-salt condition (100 mM NaCl))	antimicrobial activity (in words) (S. aureus; S. aureus, high-salt condition (100 mM NaCl))	Km (butelase 1) [µM]	kcat (butelase 1) [s⁻¹]
CC(C)C[C@H](NC(=O)[C@@H](N)CCCNC(=N)N)C(=O)N[C@@H](Cc1ccc(O)cc1)C(=O)N[C@@H](CCCNC(=N)N)C(N)=O [Monomer 11, RLYR, reference compound] (H-RLYR-NH2; N-terminus assumed)	>300	>300	no appreciable activity	no appreciable activity	–	–
